Experimental data taken from article PMC4036671, “Switching and emergence of CTL epitopes in HIV-1 infection” (Retrovirology, 2014).

Experiments:
[1] = target: HLA-A*24:02 (Homo sapiens, UniProt P04439, D101N/D140Y/D185E/E176V/E190D/F33S/G103R/G107R/I119L/I121M/I306V/K335N/L105A/L180Q/L300P/N151K/N90K/Q86E/Q94H/R106L/R138H/R89G/T104I/T345S/V100E/W191G/Y123F); assay: Peptide-HLA binding assay (T2-A24 stabilization assay); conditions: T2-A24 cells, 10^-4 to 10^-9 M peptide, normalized MFI (to 10^-4 M Nef134-8), three independent experiments
Experimental: Peptide binding to HLA-A*24:02 was assessed by using a T2-A24 stabilization assay as previously described. Briefly, after incubation for 16 hours at 26°C under 5% CO2, 2 × 10^5 T2-A24 cells were incubated with 10^-4 to 10^-9 M peptides for 1 h at 4°C. After keeping at 37°C under 5% CO2 for 3 hours, the cells were stained with biotinylated anti-human HLA-A9 monoclonal antibody (One Lambda), and streptavidin-APC conjugates (BD Pharmingen). The mean fluorescence intensity (MFI) was measured by FACSCalibur (Becton Dickinson). In each experiment, MFI of samples was normalized by the MFI of 10^-4 M control peptide, Nef134-8([…]). Three independent experiments were performed.

[2] = system: expanded PBMCs; assay: Longitudinal IFN-γ ELISpot assay with serially diluted peptides in one individual; assay type: cell-based, human; conditions: one patient; for peptide-specific IFN-γ ELISpot response, latter time point: 2003/3/20, plasma virus 133T/135F
Experimental: The gamma interferon enzyme-linked immunospot (IFN-γ ELISpot) assay was performed using patients’ PBMCs as previously described with some modifications. […] Peptides were added directly to the wells at a final concentration of 10^-5 M. 5 ~ 10 × 10^4 cells were added to each well with a final volume of 100 μl of R10. For negative controls, PBMCs were incubated with R10 alone without peptides. After incubation at 37°C under 5% CO2 overnight (16 to 18 h), the plates were washed six times with phosphate-buffered saline containing 0.01% tween-20 (PBST). […] After washing with PBST, streptavidin-alkaline phosphatase conjugate (Mabtech) was added and the plates were kept at room temperature for 45 min. After washing with PBST, IFN-γ-producing cells were detected as dark spots after 10- to 20-min color reaction with 5-bromo-4-chloro-3-indolylphosphate and nitroblue tetrazolium by using AP Conjugate Substrate Kit (Bio-Rad). Spots were counted by KS ELISPOT compact (Carl Zeiss) and expressed as spot-forming units (SFU) per 10^6 PBMCs after subtracting the SFU of the negative control. Values with >50 SFU, >3 × mean SFU of negative control and > mean SFU of negative control + 3 SD per 10^6 input cells were considered as a positive response.
(§1) Since more cells were required for the immune response screening (Figure 1B) and functional avidity assays (Figures 4B and 6C), PBMCs were stimulated with anti-human CD3 antibody and the T cells were expanded for 2 to 3 weeks in R10/50 (BD Pharmingen). Culture media was changed to R10 two days prior to the assay date. For ex vivo IFN-γ ELISpot assay (Figures 5B and 6B), PBMCs were cultured for 6 hours in R10 media.

[3] = system: expanded PBMCs from 46 HIV-1 patients; assay: IFN-γ ELISpot assay using expanded PBMCs (screening of HLA-A*24:02-restricted epitopes); assay type: cell-based, human; conditions: for response rate: 46 HLA-A*24:02-positive HIV-1 patients, peptide 10^-5 M, overnight 16 to 18 h, positive >50 SFU per 10^6 cells; for peptide-specific response among patients with Nef135Y: eight patients with Nef135Y in plasma HIV RNA
Experimental: (§2) The gamma interferon enzyme-linked immunospot (IFN-γ ELISpot) assay was performed using patients’ PBMCs as previously described with some modifications. In brief, 96-well plates (Millipore) were coated with anti-gamma-interferon (IFN-γ) MAb 1-D1k (Mabtech) overnight at 4°C. Peptides were added directly to the wells at a final concentration of 10^-5 M. 5 ~ 10 × 10^4 cells were added to each well with a final volume of 100 μl of R10. For negative controls, PBMCs were incubated with R10 alone without peptides. After incubation at 37°C under 5% CO2 overnight (16 to 18 h), the plates were washed six times with phosphate-buffered saline containing 0.01% tween-20 (PBST). Biotinylated anti-IFN-γ MAb 7-B6-1 (Mabtech) was added, and was incubated for 2 hours at 37°C under 5% CO2. After washing with PBST, streptavidin-alkaline phosphatase conjugate (Mabtech) was added and the plates were kept at room temperature for 45 min. After washing with PBST, IFN-γ-producing cells were detected as dark spots after 10- to 20-min color reaction with 5-bromo-4-chloro-3-indolylphosphate and nitroblue tetrazolium by using AP Conjugate Substrate Kit (Bio-Rad). Spots were counted by KS ELISPOT compact (Carl Zeiss) and expressed as spot-forming units (SFU) per 10^6 PBMCs after subtracting the SFU of the negative control. Values with >50 SFU, >3 × mean SFU of negative control and > mean SFU of negative control + 3 SD per 10^6 input cells were considered as a positive response.
as §1

[4] = system: Nef126-10-specific CTL clone I30-1; assay: Epitope recognition by CTL clone, peptide-pulsed 293FT-A24DRm-CY0 cells, IFN-γ ELISA; assay type: cell-based, human; conditions: 293FT-A24DRm-CY0 cells pulsed with serially diluted peptide (3^2 to 3^-6 μM), co-culture 18 to 24 h, three independent experiments
Experimental: (§3) The cells were washed twice with R10, then cultured with 1 × 10^6 autologous PBMCs and 4 × 10^6 irradiated (3300 rad) allogeneic PBMCs in R10. After 4 days, IL-2 was added to 50 U/ml and the cells were cultured for 2–3 weeks in R10/50. Peptide-specific CD8^+ T cells were enriched by MACS separation (Miltenyi) using tetramers. The sorted cells were cloned by limiting dilution to 3 or 10 cells/well in 96-well round-bottom tissue culture plates, and cultured with 10^5 irradiated allogeneic PBMCs in R10/50 containing 5 μg/ml PHA-L.
(§4) CTL-recognition of the epitopes was assessed by serially diluted peptides. On day 0, 293FT-A24DRm-CY0 cells were seeded onto 96-well Flat-bottom transparent plate (BD Falcon) so that the cultures become confluent on day 2. On day 2, each peptide was pulsed with concentrations from 3^2 to 3^-6 μM to the wells and incubated at 37°C under 5% CO2 for 1 h. Then CTLs (5,000 ~ 10,000 cells) were added and co-cultured at 37°C under 5% CO2 for 18 to 24 h. After the incubation, supernatants were harvested, and IFN-γ concentrations were quantified by Human IFN-γ ELISA Set (BD Bioscience). In each experiment, the IFN-γ value of samples was normalized to that of the highest wild type peptide concentration (9 μM). For example, each IFN-γ value of I30-1 CTL clone was divided by the value of the well pulsed with 9 μM Nef126-10(wt) peptide. Each assay was performed in duplicate and three independent experiments were conducted.

[5] = system: expanded PBMCs; assay: Functional avidity assay (IFN-γ ELISpot, limiting dilution of peptide); assay type: cell-based, human; conditions: nine individuals harboring 133T/135F, peptide 10^-5 to 10^-12 M, compared to Nef126-10(8T10F), Mann-Whitney U-test p < 0.05
Experimental: Basically, the assay was performed using the same procedure with IFN-γ ELISpot assay as described above. PBMCs were cultured for 2 to 3 weeks in R10/50 after anti-human CD3 antibody (BD Pharmingen) stimulation, and culture media were changed from R10/50 to R10 two days before use. PBMCs were incubated with peptides at concentrations from 10^-5 to 10^-12 M, and SFU was calculated. The functional avidity to peptide dilutions was determined as a 50% of sigmoidal dose (SD50) SFU.
All data visualization and statistical analyses were performed using GraphPad Prism (GraphPad Software, La Jolla, CA). Student’s t-test and Mann–Whitney U-test were used to compare the antigen presentation and functional avidity between two groups, respectively. Spearman rank correlation was used to calculate the correlation between peptide-specific response and pVL. Dose at 50% response in sigmoidal dose–response curves (SD50) was calculated by drawing sigmoidal dose–response curves. Time to mutational escape, defined as the time elapsed between estimated date of HIV-1 infection and the first appearance of a full or partial amino acid change consistent with the specific escape mutation of interest, was calculated using Kaplan-Meier (survival) methods.

[6] = system: PBMCs; assay: Ex vivo IFN-γ ELISpot assay; assay type: cell-based, human; conditions: for correlation between magnitude of peptide-specific response and pVL: 24 IMSUT cohort patients harboring 133I/135F or 133T/135F, ex vivo IFN-γ ELISpot with frozen PBMCs, Spearman's rank correlation; for patients with peptide-specific response, plasma viruses 133T/135F: patients with 133T/135F viruses (n = 10)
Experimental: as §2, §1

[7] = system: Nef134-10-specific CTL clone H27-9; assay: Epitope recognition by CTL clone, peptide-pulsed 293FT-A24DRm-CY0 cells, IFN-γ ELISA; assay type: cell-based, human; conditions: 293FT-A24DRm-CY0 cells pulsed with serially diluted peptide (3^2 to 3^-6 μM), co-culture 18 to 24 h, three independent experiments
Experimental: as §3, §4

Substance	binding to HLA-A*24:02 [1]	response rate [3] [%]	peptide-specific IFN-γ ELISpot response, latter time point [2]	IFN-γ production by CTL clone I30-1 [4]	also measured
VPLDKDFRKY [reference compound]	might not bind to HLA-A*24:02				
Nef126-10: published HLA-A*24:02-restricted HIV-1 nef CTL epitope peptide, 10 amino acids from Nef126 (HXB2 numbering) (NYTPGPGVRY; UniProt P04601 126-135, looked up, fragment)		50.0			peptide-specific IFN-γ ELISpot response, earlier time point ([2]; 2000/9/4, plasma virus wild type around Nef126-10/Nef134-10): no Nef126-10-specific responses were observed; number of responders among patients harboring Nef135F ([3]; 35 patients harboring Nef135F): 23; peptide-specific response among patients with Nef135Y [3]: none of the eight patients
Nef126-10(wt): wild-type Nef126-10 peptide with Y at the C-terminus (NYTPGPGIRY)	lowers the affinity		detected only at high peptide concentrations	only at high concentrations	
Nef134-10: published HLA-A*24:02-restricted HIV-1 nef CTL epitope peptide, 10 amino acids from Nef134 (HXB2 numbering) (RYPLTFGWCY; UniProt P04601 134-143, looked up, fragment)		80.4	decreased but remained detectable		number of responders among patients harboring Nef135F ([3]; 35 patients harboring Nef135F): 28; response rate among patients harboring Nef135F ([3]; 35 patients harboring Nef135F): 80.0%; peptide-specific response among patients with Nef135Y [3]: all of them
Nef126-10(8I10F) (NYTPGPGIRF)	dramatically improved its binding		robust responses	strong responses at very low peptide concentration	functional avidity (SD50) of peptide-specific CTL responses [5]: significantly higher avidities; correlation between magnitude of peptide-specific response and pVL [6]: inversely correlated with pVL; patients with peptide-specific response, plasma viruses 133T/135F ([6]; ex vivo IFN-γ ELISpot, PBMCs): 7 of 10
Nef126-10(8T10F): Nef126-10 peptide with threonine at 8th position (I133T) and F at position 10 (NYTPGPGTRF)	did not significantly affect epitope-HLA binding		robust responses	strong responses at very low peptide concentration	correlation between magnitude of peptide-specific response and pVL [6]: not; patients with peptide-specific response, plasma viruses 133I/135F ([6]; ex vivo IFN-γ ELISpot, PBMCs, patients with 133I/135F viruses (n = 4)): 0 of 4; patients with peptide-specific response, plasma viruses 133T/135F ([6]; ex vivo IFN-γ ELISpot, PBMCs): Nine out of 10
KYKLKHIVW [Gag28-9, reference compound]		40.0		Neither clone showed specificity	IFN-γ production by CTL clone H27-9 [7]: Neither clone showed specificity
